# Columns and labels:
# [1] = system: fatty streak lesions; assay: Fatty streak lesions in apo E deficient mice; format: in vivo; details: 1.0 mg/ml in drinking water, 5 weeks, FIG. 9
# Description: Apo E deficient mice were purchased from Jackson Laboratories (Bar Harbor, Me.). The mice were 5 weeks old at the time of the experiments. The animals were maintained on a chow diet containing 4% fat, obtained from Ralston-Purina (St. Louis, Mo.). One group (n=10) was given in their drinking water 1.0 mg/ml of 1,2-dimyristoyl-sn-glycero-3-phosphocholine (1,2-ditetradecanoyl-sn-glycero-3-phosphocholine) (shown as DGP on the figure, approximately 99% pure, catalog # P 7331, Sigma Chemical Company, St. Louis, Mo.). […] After 5 weeks of treatment, the animals were sacrificed and hearts were harvested and processed according to the methods described by Qiao et al. (1994) Arterioscl Thromb, 14: 1480-1497). In brief, 10 μm thick cryosections were stained with Oil red 0 and hematoxylin and counterstained with fast green and examined by light microscopy for the identification of atheromatous lesions. Lesion size was measured using a 1.0 cm optical grid with 20×20 grid lines. Under 10× magnification, each square corresponded to 1/400 mm^2 (or 2500 μm^2). A square with lipophilic stain was counted as lesion if the visually observed stain covered at least 1/8th of the square.
# [2] = Lipoprotein cholesterol levels (FPLC) in apo E deficient mice; format: in vivo; details: 2.0 mg/ml in drinking water, 24 and 48 hrs, FIG. 6
# Description: Apo E deficient mice were purchased from Jackson Laboratories (Bar Harbor, Me.). The mice were 5 weeks old at the time of the experiments. The animals were maintained on a chow diet containing 4% fat, obtained from Ralston-Purina (St. Louis, Mo.). Synthetic 1,2-ditetradecanoyl-sn-glycero-3-phosphocholine (shown in the figure as circles at 24 h and as triangles at 48 h and abbreviated as DGP; 99+% purity, catalog # P 2663, Lot # 17H8362, Sigma Chemical Company, St. Louis Mo.) was added at 2.0 mg/ml to the drinking water of one group of apo E deficient mice (n=5). […] After 24 and 48 hrs blood was collected from the retroorbital sinus under mild anesthesia into heparinized tubes under an approved protocol of the UCLA Animal Research Committee. Plasma was separated and was fractionated using fast protein liquid chromatography (FPLC). Cholesterol content of the fractions was determined using a kit (Infinity reagent) obtained from Sigma Chemical Company.
# [3] = system: paraoxonase-1 (PON1); assay: Paraoxonase activity of plasma fractions of apo E deficient mice; format: in vivo; details: 2.0 mg/ml in drinking water, FIG. 7
# Description: Plasma fractions obtained as described in above were analyzed for paraoxonase activity using paraoxon a substrate as reported by Watson et al. (1995) J Clin Invest., 96: 2882-2891). The control samples are shown as diamonds in the figure.
# [4] = system: Human artery wall cell cocultures; assay: HDL protective capacity and LDL susceptibility to oxidation in human artery wall cell cocultures; format: in vivo, apo E deficient mice; details: 18 hrs, FIG. 8
# Description: Plasma fractions obtained as described above were pooled in the region containing LDL and the region containing HDL. Human artery wall cell cocultures were prepared as reported previously (Navab et al. (1997) J Clin Invest., 99: 2005-2019) and used to determine the extent of LDL oxidation as judged by the level of monocyte chemotactic activity generated by oxidized LDL. As the assay controls, to some wells containing the artery wall cocultures was added a standard human LDL (h LDL) at 200 μg LDL protein per ml. To other wells was added h LDL+human HDL (h HDL) at 350 μg HDL protein per ml. The protective capacity of HDL obtained from apo E deficient mice was then tested. To some wells was added standard human LDL (Std. h LDL) at 200 μg LDL protein per ml plus 50 μg of HDL cholesterol obtained from the mice that had received drinking water without additions (Std. h LDL+Cont. E null HDL). To other wells in addition to human LDL, HDL (at 50 μg cholesterol/ml) obtained from mice given drinking water containing 2.0 mg per ml of 1,2-dimyristoyl-sn-glycero-3-phosphocholine (1,2-ditetradecanoyl-sn-glycero-3-phosphocholine) (Std. h LDL+DGP HDL) was added and incubated for 18 hrs. LDL susceptibility to oxidation was additionally determined. […] The values are mean±SD of the number of monocytes counted in 9 high power fields from quadruple wells. […]
# [5] = system: lesions; assay: Lesion regression in 10 month old apo E deficient mice; format: in vivo; details: 1.0 mg/ml in drinking water for five weeks after 10 months on chow, FIG. 10
# Description: Apo E deficient mice were purchased from Jackson Laboratories (Bar Harbor, Me.). The mice were maintained on a chow diet containing 4% fat, obtained from Ralston-Purina (St. Louis, Mo.) for 10 months at which time one group (n=5) were sacrificed and lesions determined. A second group (n=8) received 1.0 mg/ml of synthetic 1,2-ditetradecanoyl-sn-glycero-3-phosphorylcholine (DGP, approximately 99% pure, catalog # P 7331, Sigma Chemical Company, St. Louis, Mo.) in their drinking water for another five weeks. […] After 5 weeks of treatment, the animals were sacrificed. The hearts and blood vessels from the three groups were harvested and processed as previously reported (Qiao 1994) to determine lesion area.
# [6] = system: human aortic endothelial cells; assay: Monocyte chemotactic activity of supernatants of Ox-PAPC treated HAECs; format: cell-based; details: oligonucleotide 100 nM, 18 h, then Ox-PAPC 50 μg/ml 4 h, FIG. 5A-5C
# Description: Human aortic endothelial cells were transfected with either ‘antisense’ or ‘sense’ phosphorothioate oligonucleotides (100 nM) to human MKP-1. Eighteen hours later, control and transfected cells were either left untreated or treated with Ox-PAPC (50 μg/ml) for an additional four hours. Following the treatments, cell supernatants were collected and analyzed for monocyte chemotactic activity.
# [7] = system: human MKP-1; assay: Western blot of MKP-1 protein in Ox-PAPC treated HAECs after oligonucleotide transfection; format: cell-based; details: oligonucleotide 100 nM, 18 h, then Ox-PAPC 50 μg/ml 4 h, FIG. 3A, 3B
# Description: HAECs were transfected with either ‘antisense’ or ‘sense’ phosphorothioate oligonucleotides (100 nM) to human MKP-1. Eighteen hours later, control and transfected cells were either left untreated or treated with Ox-PAPC (50 μg/ml) for an additional four hours.
# [8] = system: human aortic endothelial cells; assay: Monocyte adhesion assay with supernatants of Ox-PAPC treated HAECs; format: cell-based; details: oligonucleotide 100 nM, 18 h, then Ox-PAPC 50 μg/ml 4 h, FIG. 4
# Description: Human aortic endothelial cells were transfected with either ‘antisense’ or ‘sense’ phosphorothioate oligonucleotides (100 nM) to human MKP-1. Eighteen hours later, control and transfected cells were either left untreated or treated with Ox-PAPC (50 μg/ml) for an additional four hours. Following the treatments, cell supernatants were collected and analyzed in a monocyte adhesion assay.
# [9] = system: influenza A; details: injected, mice; cited from earlier work
compound,measurement,setting,value
"CCCCCCCCCCCCCC(=O)OC[C@H](COP(=O)([O-])OCC[N+](C)(C)C)OC(=O)CCCCCCCCCCCCC [1,2-dimyristoyl-sn-glycero-3-phosphocholine]",reduction in atherosclerosis,[1],84.1%
same,high density lipoprotein (HDL) levels,[2],dramatic increase
same,very low density lipoproteins (VLDL) or low density lipoproteins (LDL),[2],without a significant change
same,content of paraoxonase-1 (PON1) associated with HDL,[3],dramatic increase
same,HDL protective capacity (protecting LDL against oxidation),"[4]; HDL from mice given 2.0 mg per ml in drinking water, 50 μg cholesterol/ml",more effective in protecting LDL against oxidation
same,LDL susceptibility to oxidation,"[4]; LDL from mice given 2.0 mg per ml in drinking water, 100 μg LDL cholesterol per ml",more resistant to oxidation by artery walls
same,lesion area change,[5],dramatic lesion regression
"antisense oligonucleotides: antisense phosphorothioate oligonucleotide to human MKP-1; 5′-GGAACTCAGTGGAACTCAGG-3′ (SEQ ID NO:2) (antisense GGAACTCAGTGGAACTCAGG; all phosphorothioate, sugars by position and methylation of C not given here)",monocyte chemotactic activity / monocyte chemotaxis,[6],did not promote monocyte chemotaxis
same,Ox-PAPC-induced MKP-1 protein expression,[7],prevent the accumulation of MKP-1 protein
same,Ox-PAPC induction of monocyte adherence,[8],did not promote monocyte adhesion
"apo A-I: apo A-I, injected in mice with influenza A in a copending application",signs and symptoms of influenza A,[9],greatly ameliorated
